We go through one compound from patent US10335504B2, “Heterocyclic molecules for biomedical imaging and therapeutic applications” (Washington University, priority 2013, dated 2019).

Data set [1] deals with T1, Aβ plaques (Homo sapiens, UniProt P05067).
T1 construct: from tissue; host or cells: brain of APPsw+/-/PS1 (and APPsw+/-) transgenic mice: sections ex vivo, and live animals for multiphoton imaging
The data set is described as follows: Ex vivo staining of mouse brain sections. Type of data set: binding. As to conditions: 24 months. Here is the method: FIG. 2 illustrates ex vivo staining studies were performed on brain sections (50 μm) of an APPsw^+/−/PS1 mouse (24 months old) and a control WT mouse (BL/6; 24 months old) using well-established procedures. Briefly, tissue sections were immunostained with mouse monoclonal antibody and visualized by donkey-anti-mouse HJ3.4 Aβ monoclonal antibody-Alexa 568 as a positive control. […] By comparison, no staining in WT mice was seen either with F-AI-182 or the antibody indicating the targeting specificity of F-AI-182. The slides were analyzed on a Zeiss LSM 5 PASCAL confocal system coupled to a Zeiss Axiovert 200 microscope.
The slides were analyzed using a Nikon Ti-E PFS inverted microscope equipped with a Nikon 10x 0.3 NA Plan APO objective, Prior H117 ProScan flat top linear encoded stage, and Prior Lumen 200PRO illumination system with standard DAPI and FITC filter sets. The images were acquired using a Photometrics CoolSNAP HQ2 digital camera and MetaMorph microscopy automaton, and imaging software. Images were processed and analyzed using the Image J software package (NIH).

Data set [2] deals with T2, preformed Aβ1-42 fibrils (Homo sapiens, UniProt P05067).
T2 construct: preformed Aβ1-42 fibrils
The experiment in a line: Binding assay with preformed Aβ1-42 fibrils/aggregates in PBS (fluorescence). As to conditions: PBS. The source says:
In some embodiments of the present teachings, binding assays to preformed fibrils or AD brain homogenate extracts can be performed using literature procedures (Klunk, W., et al. Uncharged thioflavin-T derivatives bind to amyloid-beta protein with high affinity and readily enter the brain. Life Sci 69, 1471-1484 (2001); Zhen, W., et al. Synthesis and amyloid binding properties of rhenium complexes: preliminary progress towards a reagent for SPECT imaging of Alzheimer's disease brain. J Med Chem 42, 2805-2815 (1999)). Prior to binding assays, the stock solution (2 μM) can be thawed. To aliquots of this stock solution, ^18F-AI-182 (also exemplified for either ^18F-AI-183 or ^18F-AI-187) can be added at various concentrations to a final concentration of 200 nM Aβ fibrils or 200 μL of AD brain extracts (20-25 μg). The aggregate-bound ^18F-AI-182 (or other analogues) can be collected on Whatman GF filters using Brandon M-24R cell harvester, washed, and counted in a γ-counter (Perkin Elmer). Inhibition constants (Ki) can be calculated as described previously (Han, H., Cho, C. & Lansbury, P. J. Technetium complexes for quantification of brain amyloid. J Am Chem Soc 118, 4506-4508 (1996)). Binding assay results can assist in evaluation of target specificity.
Binding assays of F-AI-182 with preformed Aβ1-42 aggregates were performed in PBS. […] Fluorescence was not observed using Aβ aggregates alone in PBS upon excitation at 410 nm (a negative control). […] Comparative analyses can be performed with other compounds such as AV-45, BAYER 94-9172, and AZD4694. An agent can be interacting with either of the two modestly high affinity binding sites (BS1& BS2) or recognizing an entirely new site on Aβ1-42. F-AI-182 can register different complementary binding sites in relation to Aβ-pathophysiology compared to current agents.

Data set [3] has as its system Aβ plaques. The data set is described as follows: Staining of human AD brain tissue sections. Type of data set: binding. The note with it: person with AD; 50 nM. Here is the method:
Staining experiments were performed with human brain tissues. Tissue samples were obtained from the frontal lobe of clinically and neuropathologically well-characterized cases. The neuropathological diagnosis of AD was based on the criteria of the Consortium to Establish a Registry for Alzheimer's Disease (CERAD) (Mirra, S., et al. The Consortium to Establish a Registry for Alzheimer's Disease (CERAD). Part II. Standardization of the neuropathologic assessment of Alzheimer's disease. Neurology 41, 479-486 (1991)) or the National Institute of Aging-Reagan Institute (NIA-RI) (Hyman, B. & Trojanowski, J. Consensus recommendations for the postmortem diagnosis of Alzheimer disease from the National Institute on Aging and the Reagan Institute Working Group on diagnostic criteria for the neuropathological assessment of Alzheimer disease. J Neuropathol Exp Neurol 56, 1095-1097. (1997)). […]
The fluorescent probe (F-AI-183) labels fibrillar amyloid (arrow). The slides were analyzed on a using a Nikon Ti-E PFS inverted microscope equipped with a Nikon 10×0.3 NA Plan APO objective, Prior H117 ProScan flat top linear encoded stage, and Prior Lumen 200PRO illumination system with standard DAPI and FITC filter sets. […] Images were processed and analyzed using the Image J software package (NIH).

Data set [4] concerns Human Glioblastoma (U87) Cells. The data set is described as follows: Live cell fluorescence imaging. Type of data set: cell-based. The note with it: 5 μM, 37° C., 30 min. Here is the method:
(§1) In these experiments, human carcinoma cells were incubated with AI-182
(§2) (5 μM) at 37° C. in the presence of 5% CO2 for 30 min, and examined using a Nikon Ti-E PFS inverted high resolution microscope equipped with a Nikon (Magnification: 20×) Plan APO objective, Prior H117 ProScan flat top linear encoded stage, and Prior Lumen 200PRO illumination system with standard DAPI and FITC filter sets. Top row: Live Cell Imaging of Human Glioblastoma (U87) Cells Using AI-182. Middle row: Live Cell Imaging of Human Pancreatic Cancer Cells (PANC1) Using AI-182. Bottom row: Live Cell Imaging of Human Pancreatic Cancer Cells (Mia PaCa-2) Using AI-182.

Data set [5] relates to Human Pancreatic Cancer Cells (Mia PaCa-2). The data set is described as follows: Live cell fluorescence imaging. Type of data set: cell-based. As to conditions: 5 μM, 37° C., 30 min. The procedure:
as §1, §2

Data set [6] has as its system Human Pancreatic Cancer Cells (PANC1). The experiment in a line: Live cell fluorescence imaging. Type of data set: cell-based. As to conditions: 5 μM, 37° C., 30 min. The procedure: as §1, §2
Data set [7] is described as follows: Hydrophobicity (log P). Type of data set: physicochemical.
Data set [8] deals with T1, Aβ plaques. The experiment in a line: Multiphoton imaging in live APP/PS1 mice. Type of data set: in vivo, mouse. Here is the method: Prior to imaging, dextran-Texas Red was injected for mapping the blood vessels. Following labeling of blood vessels, F-AI-182 (2 mg/kg, dissolved in DMSO/PEG; 20:80) was intravenously injected. A z-stack image series was acquired from cortex surface to a depth of approx. 100 μm using microscope LSM 510META NLO (Carl-Zeiss Inc). […] The labeling of brain parenchymal plaques was visible within 10 min, indicating facile clearance from non-targeted regions and remained labeled for 30 min (FIG. 6). Multi-photon imaging can be done using ^18F-AI-182, other agents, or second generation agents (Bacskai, B., et al. Four-dimensional multiphoton imaging of brain entry, amyloid binding and clearance of an amyloid-3 ligand in transgenic mice. Proc Natl Acad Sci USA 100, 12462-12467 (2003)).

Entries after “also recorded” stand apart in the source; their conditions may differ. Where only a bound is given, the exact number is not on record here.

T1 sequence (P05067 672-713 limits assumed): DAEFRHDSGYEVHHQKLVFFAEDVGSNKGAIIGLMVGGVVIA
T2 sequence (P05067 672-713 limits assumed): as above

What is called Kd is a measure of binding affinity in units of concentration. As a reminder, the logP is the decadic logarithm of the partition coefficient of the neutral form, usually between octanol and water. For `CN(C)c1ccc(/C=C/c2nc3ccc(OCCF)cc3s2)cn1` [F-AI-182], the “staining of plaques in hippocampus and cortical region of brain sections” value in data set [1] (APPsw+/−/PS1 mice, 100 nM, 60 min) is “staining of both fibrillar and diffuse plaques; also recorded: stains both fibrillar and diffuse plaques; also recorded: abundant staining of fibrillar and diffuse plaques”. For the same compound, the “staining of brain sections of WT mice” value in data set [1] (WT BL/6 mouse) is on record as “no staining”. Moreover, the Kd in data set [2] (concentration dependent and saturable binding, read-out: binding constant (Kd) to preformed Aβ1-42 fibrils) stood at 0.059 ± 0.007 µM. For the same compound, in data set [2] (excitation 410 nm), the “fluorescence of 570 nm peak upon incubation with preformed Aβ(1-42) aggregates” value is given as “remarkable enhancement in the fluorescence”. Besides, the “staining of Aβ plaques in human AD brain sections” value in data set [3] is “detect both diffuse and compact AP plaques; also recorded: stains both fibrillar and diffuse plaques; also recorded: abundant staining of Aβ plaques”. In addition, the “probe uptake in cells (fluorescence)” value in data set [4], in data set [5] and in data set [6] was “accumulation of the probe within cells” in each case. Moreover, the logP in data set [7] stood at 1.2. Besides, in data set [8] (live APP/PS1 mice), the “time at which labeling of brain parenchymal plaques was visible” value is listed as at most 10 min. Also, the “time plaques remained labeled” value in data set [8] (live APP/PS1 mice) came out at 30 min. Moreover, the “labeling of plaques in vivo by multi-photon microscopy” value in data set [8] (live APPsw+/−/PS1 mice, 2 mg/kg i.v., 2 mg/kg) was “label plaques in brain parenchyma and blood vessels (CAA)”.
